# Measurements taken from patent EP3521435A1, “A HIGH STRINGENCY SELECTION SYSTEM FOR PROTEIN EXPRESSION IN PROLINE-AUXOTROPHIC CELLS” (Bayer AG, priority 2018, dated 2019).
# System: CHO-K1 cells
# Experiment: Flow cytometric analysis of GFP expression (MFI, high fluorescing cells) in stably selected cell populations
# Type: cell-based, Chinese hamster
# Conditions: for improvement of MFI as compared to Puromycin selected cultures / increase of the frequency of high fluorescing cells as compared to Puromycin selected cultures: DHP in proline-free medium
# Experimental: To efficiently test the impact of different procedures on improving selection stringency, experimental testing in stable cell populations was performed. As test molecules, enhanced green fluorescent protein (GFP) as well as a human IgG1 were chosen. CHO-K1 cells adapted to growth in suspension in defined medium were obtained from SAFC and cultivated in EX-CELL CD CHO Fusion medium (SAFC 14365C). Custom-made EX-CELL CD CHO Fusion medium without L-Proline (Pro) and without L-Ornithine (Orn) ("proline-free medium") was obtained from SAFC. The expression vector system was based on modified versions of "CET 1019 AS-puro-SceI" and "CET 1019 AD-puro-SceI" for GFP and human IgG1, respectively, from Merck-Millipore, containing the Puromycin selection marker (Puromycin N-acetyl-transferase) known to exert a high selection stringency. To minimize variations in cell populations derived from using different transfections or different vectors, the first series of experiments were conducted using vectors into which a P5CS expression cassette was cloned upstream of a UCOE element, in addition to the Puromycin selection marker present downstream of a gene of interest. This way, it was possible to pool different transfections using the same vector to obtain a common starting point, and split the mixture according to different selection conditions, minimizing any variations that are not due to selection conditions themselves. Expression of long and short isoform of murine P5CS (Protein: Delta-1-pyrroline-5-carboxylate synthase; Gene: Aldh18a1; UniProtKB accession number: Q9Z110-1 & Q9Z110-2) was driven by a SV40 promoter. A SV40 polyadenylation sequence was used at the 3' end of the gene. More details can be found in Table 1. Typically, CHO cells were cultivated in EX-CELL CD CHO Fusion medium containing 6 mM GlutaMAX (Thermo Fisher, 35050-38) ("CD-Fusion medium") at 37 °C with 5% CO2. Cells were grown to logarithmic phase under shaking conditions for transfections. 1e7 cells/cuvette were transfected using nucleofection (Amaxa Nucleofector II, following the manufacturer's recommendations) with 5 µg of linearized DNA. After transfection, cells were taken up in 1 ml medium and transferred into 1 well of a 6 well microtiter plate (MTP) already containing 1 ml medium. The cells were incubated for 24 h without shaking, after which 9 ml medium were added and cells were washed (either in standard or proline-free medium). Multiple transfections were pooled, if applicable. Cells were adjusted to 2e5 viable cells/ml and 10 ml were transferred to T-25 flasks. Reference cell populations were selected using 10 µg/ml Puromycin in CD-Fusion medium. For P5CS-based selection, EX-CELL CD CHO Fusion medium (custom-made, SAFC) containing 6 mM GlutaMAX without proline and without ornithine was used ("proline-free" or "CD-Fusion w/o Pro" medium), with or without additional selection pressure.
# Cell viability of the different populations was monitored over time. As soon as cell populations appeared to recover from selection pressure, cells were transferred to Shake Flask or TubeSpins for expansion in suspension under shaking conditions. Subsequently, stable cell populations transfected with IgG were seeded at 2e5 viable cells/ml for batch fermentation without selection pressure (i.e. standard CD-Fusion medium containing proline and no other selective agents). The cells were cultivated for 5-10 days, viable cell densities and productivity were monitored over time. IgG titers were determined using Poros A-HPLC method. Typically, final batch titers were recorded at a time point at which majority of cultures had around 70% viability. Stable cell populations transfected with GFP vector were subjected to analysis by flow cytometry using Guava easyCyte 8HT Benchtop Flow Cytometer (Millipore). 250 µl of cell culture were transferred to 96 MTP and washed with PBS. Dead cells were excluded from analysis using propidium iodide (PI). […]
# [1] = Table 11, day 19 post-transfection, pJF1555, CD-Fusion + 10 µg/ml Puromycin
# [2] = Table 11, day 19 post-transfection, pJF1555, CD-Fusion w/o Pro + 0.25mM Pro + 10 µg/ml Puromycin
# [3] = Table 13, day 19 post-transfection, pJF1555, CD-Fusion + 10 µg/ml Puromycin
# [4] = Table 13, day 19 post-transfection, pJF1555, CD-Fusion w/o Pro + 0.25 mM Pro + 10 µg/ml Puromycin
# [5] = Table 13, day 19 post-transfection, pJF1576 (control, human IgG1 vector), CD-Fusion + 10 µg/ml Puromycin
# [6] = day 15 post-transfection, pJF1555, CD Fusion + 10 µg/ml Puromycin
# [7] = day 15 post-transfection, pJF1555, CD-Fusion w/o Pro + 10 µg/ml Puromycin
# [8] = day 15 post-transfection, pJF1555, CD-Fusion w/o Pro + 0.25 mM Pro + 10 µg/ml Puromycin
# [9] = day 20 post-transfection, pJF1556, CD Fusion + 10 µg/ml Puromycin
# [10] = day 20 post-transfection, pJF1556, CD-Fusion w/o Pro + 10 µg/ml Puromycin
# [11] = day 20 post-transfection, pJF1556, CD-Fusion w/o Pro + 0.25 mM Pro + 10 µg/ml Puromycin
# [12] = day 22 post-transfection, pJF2053, CD-Fusion + 10 µg/ml Puromycin
# [13] = day 22 post-transfection, pJF2222, CD-Fusion + 10 µg/ml Puromycin
# [14] = day 29 post-transfection, pJF2053, CD-Fusion + 10 µg/ml Puromycin
# [15] = Table 11, day 19 post-transfection, pJF1555, CD-Fusion w/o Pro + 0.2 mM DHP
# [16] = Table 13, day 19 post-transfection, pJF1555, CD-Fusion w/o Pro + 0.05 mM DHP
# [17] = Table 13, day 19 post-transfection, pJF1555, CD-Fusion w/o Pro + 0.1 mM DHP
# [18] = Table 13, day 19 post-transfection, pJF1555, CD-Fusion w/o Pro + 0.2 mM DHP
# [19] = Table 13, day 19 post-transfection, pJF1555, CD-Fusion w/o Pro + 0.4 mM DHP
# [20] = day 22 post-transfection, pJF2055, CD-Fusion w/o Pro + 0.02 mM DHP
# [21] = day 22 post-transfection, pJF2055, CD-Fusion w/o Pro + 0.03 mM DHP
# [22] = day 22 post-transfection, pJF2055, CD-Fusion w/o Pro + 0.04 mM DHP
# [23] = day 22 post-transfection, pJF2055, CD-Fusion w/o Pro + 0.06 mM DHP
# [24] = day 22 post-transfection, pJF2055, CD-Fusion w/o Pro + 0.07 mM DHP
# [25] = day 22 post-transfection, pJF2055, CD-Fusion w/o Pro + 0.08 mM DHP
# [26] = day 22 post-transfection, pJF2303, CD-Fusion w/o Pro + 0.02 mM DHP
# [27] = day 22 post-transfection, pJF2303, CD-Fusion w/o Pro + 0.04 mM DHP
# [28] = day 22 post-transfection, pJF2303, CD-Fusion w/o Pro + 0.06 mM DHP
# [29] = day 22 post-transfection, pJF2303, CD-Fusion w/o Pro + 0.08 mM DHP
# [30] = day 22 post-transfection, pJF2303, CD-Fusion w/o Pro + 0.2 mM DHP
# [31] = day 22 post-transfection, pJF2303, CD-Fusion w/o Pro + 0.3 mM DHP
# [32] = day 22 post-transfection, pJF2303, CD-Fusion w/o Pro + 0.4 mM DHP
# [33] = day 22 post-transfection, pJF2303, CD-Fusion w/o Pro + 0.5 mM DHP
# [34] = day 29 post-transfection, pJF2460, CD-Fusion w/o Pro + 0.01 mM DHP
# [35] = day 29 post-transfection, pJF2460, CD-Fusion w/o Pro + 0.03 mM DHP
smiles,measurement,setting,value
COc1ccc(C[C@H](N)C(=O)N[C@H]2[C@@H](O)[C@H](n3cnc4c(N(C)C)ncnc43)O[C@@H]2CO)cc1 [Puromycin],Frequency of high fluorescing cells,"Table 9, day 15 post-transfection, pJF1555, CD-Fusion w/o Pro + 0.25 mM Pro + 10 µg/ml Puromycin",4.3%
same,Frequency of high fluorescing cells,[1],3.4%
same,Median Fluorescence Intensity (MFI) (yellow),[1],13092
same,Frequency of high fluorescing cells,[2],3.6%
same,Median Fluorescence Intensity (MFI) (yellow),[2],12860
same,Frequency of high fluorescing cells,[3],1.0%
same,Median Fluorescence Intensity (MFI) (yellow),[3],6167
same,Frequency of high fluorescing cells,[4],1.5%
same,Median Fluorescence Intensity (MFI) (yellow),[4],6625
same,Frequency of high fluorescing cells,[5],0.1%
same,Median Fluorescence Intensity (MFI) (yellow),[5],9
same,Frequency of high fluorescing cells,[6],5.1%
same,Median Fluorescence Intensity (MFI) (yellow),[6],5072
same,Frequency of high fluorescing cells,[7],5.1%
same,Median Fluorescence Intensity (MFI) (yellow),[7],5102
same,Frequency of high fluorescing cells,[8],4.6%
same,Median Fluorescence Intensity (MFI) (yellow),[8],4394
same,Frequency of high fluorescing cells,[9],6.9%
same,Median Fluorescence Intensity (MFI) (yellow),[9],7827
same,Frequency of high fluorescing cells,[10],8.7%
same,Median Fluorescence Intensity (MFI) (yellow),[10],9370
same,Frequency of high fluorescing cells,[11],9.6%
same,Median Fluorescence Intensity (MFI) (yellow),[11],8783
same,Frequency of high fluorescing cells,[12],2.5%
same,Median Fluorescence Intensity (MFI) (yellow),[12],11308
same,Frequency of high fluorescing cells,[13],4.2%
same,Median Fluorescence Intensity (MFI) (yellow),[13],11476
same,Frequency of high fluorescing cells,[14],2.3%
same,Median Fluorescence Intensity (MFI) (yellow),[14],11502
"O=C(O)[C@@H]1C=CCN1 [DHP, 3,4-Dehydro-L-Proline]",increase in MFI as compared to Puromycin-selected population,"0.2 mM DHP in proline-free medium, pJF1555, #4 vs #1 of Table 11",37%
same,increase of the frequency of high fluorescing cells,"0.2 mM DHP in proline-free medium, pJF1555, vs Puromycin-selected population",71%
same,improvement of MFI of the stable cell population,"0.4 mM DHP, pJF1555, Table 13",3 fold
same,increase of the frequency of high fluorescing cells,"0.4 mM DHP, pJF1555, Table 13",8.7-12.6 fold
same,Frequency of high fluorescing cells,[15],5.8%
same,Median Fluorescence Intensity (MFI) (yellow),[15],17880
same,Frequency of high fluorescing cells,[16],1.7%
same,Median Fluorescence Intensity (MFI) (yellow),[16],7599
same,Frequency of high fluorescing cells,[17],5.6%
same,Median Fluorescence Intensity (MFI) (yellow),[17],14267
same,Frequency of high fluorescing cells,[18],5.8%
same,Median Fluorescence Intensity (MFI) (yellow),[18],13748
same,Frequency of high fluorescing cells,[19],13.0%
same,Median Fluorescence Intensity (MFI) (yellow),[19],19806
same,sensitivity to DHP treatment of cultures transfected with pJF2055 relative to pJF2303,concentration ranges for DHP giving improvement,about 10 fold
same,Frequency of high fluorescing cells,[20],17.3%
same,Median Fluorescence Intensity (MFI) (yellow),[20],24032
same,Frequency of high fluorescing cells,[21],18.5%
same,Median Fluorescence Intensity (MFI) (yellow),[21],22607
same,Frequency of high fluorescing cells,[22],31.3%
same,Median Fluorescence Intensity (MFI) (yellow),[22],29703
same,Frequency of high fluorescing cells,[23],6.9%
same,Median Fluorescence Intensity (MFI) (yellow),[23],15210
same,Frequency of high fluorescing cells,[24],8.7%
same,Median Fluorescence Intensity (MFI) (yellow),[24],12393
same,Frequency of high fluorescing cells,[25],9.3%
same,Median Fluorescence Intensity (MFI) (yellow),[25],9617
same,Frequency of high fluorescing cells,[26],3.3%
same,Median Fluorescence Intensity (MFI) (yellow),[26],12080
same,Frequency of high fluorescing cells,[27],5.7%
same,Median Fluorescence Intensity (MFI) (yellow),[27],15503
same,Frequency of high fluorescing cells,[28],3.2%
same,Median Fluorescence Intensity (MFI) (yellow),[28],12536
same,Frequency of high fluorescing cells,[29],3.7%
same,Median Fluorescence Intensity (MFI) (yellow),[29],14603
same,Frequency of high fluorescing cells,[30],14.7%
same,Median Fluorescence Intensity (MFI) (yellow),[30],19163
same,Frequency of high fluorescing cells,[31],17.4%
same,Median Fluorescence Intensity (MFI) (yellow),[31],22030
same,Frequency of high fluorescing cells,[32],24.5%
same,Median Fluorescence Intensity (MFI) (yellow),[32],26155
same,Frequency of high fluorescing cells,[33],19.6%
same,Median Fluorescence Intensity (MFI) (yellow),[33],23616
same,Frequency of high fluorescing cells,[34],15.3%
same,Median Fluorescence Intensity (MFI) (yellow),[34],19951
same,Frequency of high fluorescing cells,[35],43.6%
same,Median Fluorescence Intensity (MFI) (yellow),[35],31838
same,improvement of MFI as compared to Puromycin selected cultures,"pJF2055, Table 26",up to 2.6 fold
same,increase of the frequency of high fluorescing cells as compared to Puromycin selected cultures,"pJF2055, Table 26",7.4-12.7 fold
same,improvement of MFI as compared to Puromycin selected cultures,"pJF2303, Table 26",up to 2.3 fold
same,increase of the frequency of high fluorescing cells as compared to Puromycin selected cultures,"pJF2303, Table 26",5.8-9.9 fold
same,improvement of MFI as compared to Puromycin selected cultures,"pJF2460, Table 28",up to 2.8 fold
same,increase of the frequency of high fluorescing cells as compared to Puromycin selected cultures,"pJF2460, Table 28",up to 19 fold
